# Read-outs that look alike come from different tables or passages of the source.
# Experiments:
# Type in all cases: biochemical
# CSNK1A1 [1] = target: T1, CSNK1A1 (Homo sapiens (Human), UniProt P48729); assay: CSNK1A1 Assay 2 (ADP-Glo, 1 μM ATP, substrate biotin-Ahx-KRRRAL-pS-VASLPGL); details: median, read-out: CSNK1A1 Assay 2 IC50 [mol/l] (median)
# Protocol: CSNK1A1-inhibitory activity of compounds of the present invention in presence of 1 μM adenosine-tri-phosphate (ATP) was quantified employing the CSNK1A1 assay as described in the following paragraphs. In essence, the enzyme activity is measured by quantification of the adenosine-di-phosphate (ADP), which is generated as a co-product of the enzyme reaction, via the “ADP-Glo™ Kinase Assay” kit from the company Promega. This detection system works as follows: In a first step the ATP not consumed in the kinase reaction is quantitatively converted to cAMP employing an adenylate cyclase (“ADP-Glo-reagent”), then the adenylate cyclase is stopped and the ADP generated in the kinase reaction converted to ATP which generates in a luciferase-based reaction a glow-luminescence signal (“Kinase Detection Reagent”).
# (§1) Recombinant fusion protein of N-terminal Glutathion-S-Transferase (GST) and full-length human CSNK1A1, expressed by baculovirus infected insect cells and purified via Glutathion affinity chromatography, was purchased from Life Technologies (product no. PV4174) and used as enzyme. As substrate for the kinase reaction the biotinylated peptide biotin-Ahx-KRRRAL-pS-VASLPGL (C-terminus in amide form) was used which can be purchased e.g. from the company Biosyntan (Berlin-Buch, Germany).
# For the assay 50 nl of a 100 fold concentrated solution of the test compound in DMSO was pipetted into a white 1536-well microtiter plate (Greiner Bio-One, Frickenhausen, Germany), 2 μL of a solution of CSNK1A1 in aqueous assay buffer [50 mM HEPES pH 7.5, 10% (v/v) glycerol, 10 mM MgCl2, 50 mM NaCl, 1 mM dithiothreitol, 0.01% (w/v) bovine serum albumin, 0.01% (v/v) Triton X-100] were added and the mixture was incubated for 15 min at 22° C. to allow pre-binding of the test compounds to the enzyme before the start of the kinase reaction. […] The concentration of CSNK1A1 was adjusted depending of the activity of the enzyme lot and was chosen appropriate to have the assay in the linear range, a typical concentrations are about 0.0375 ng/μL. The reaction was stopped by the addition of 2.5 μL of “ADP-Glo-reagent” (1:1.5 fold diluted with water) and the resulting mixture was incubated at 22° C. for 1 h to convert the ATP not consumed in the kinase reaction completely […]. Subsequently 2.5 μL of the “kinase detection reagent” (1.2 fold more concentrated than recommended by the producer) were added, the resulting mixture was incubated at 22° C. for 1 h and then the luminescence measured with a suitable measurement instrument (e.g. Viewlux™ from Perkin-Elmer). The amount of emitted light was taken as a measure for the amount of ADP generated and thereby for the activity of the CSNK1A1.
# CSNK1A1 [2] = target: T1, CSNK1A1; assay: CSNK1A1 High ATP Assay (ADP-Glo, 1 mM ATP); details: median, read-out: CSNK1A1 high ATP assay IC50 [mol/l] (median)
# Protocol: CSNK1A1-inhibitory activity of compounds of the present invention in presence of 1 mM adenosine-tri-phosphate (ATP) was quantified employing the CSNK1A1-high-ATP-assay as described in the following paragraphs. In essence, the enzyme activity is measured by quantification of the adenosine-di-phosphate (ADP), which is generated as a co-product of the enzyme reaction, via the “ADP-Glo™ Kinase Assay” kit from the company Promega. This detection system works as follows: In a first step the ATP not consumed in the kinase reaction is quantitatively converted to cAMP employing an adenylate cyclase (“ADP-Glo-reagent”), then the adenylate cyclase is stopped and the ADP generated in the kinase reaction converted to ATP which generates in a luciferase-based reaction a glow-luminescence signal (“Kinase Detection Reagent”).
# as §1
# For the assay 50 nl of a 100 fold concentrated solution of the test compound in DMSO was pipetted into a white low volume 384-well microtiter plate (Greiner Bio-One, Frickenhausen, Germany), 2 μL of a solution of CSNK1A1 in aqueous assay buffer [50 mM HEPES pH 7.5, 10% (v/v) glycerol, 10 mM MgCl2, 50 mM NaCl, 1 mM dithiothreitol, 0.01% (w/v) bovine serum albumin, 0.01% (v/v) Triton X-100] were added and the mixture was incubated for 15 min at 22° C. to allow pre-binding of the test compounds to the enzyme before the start of the kinase reaction. […] The concentration of CSNK1A1 was adjusted depending of the activity of the enzyme lot and was chosen appropriate to have the assay in the linear range, a typical concentration is about 0.4 ng/μL. The reaction was stopped by the addition of 2.5 μL of “ADP-Glo-reagent” (1:1.5 fold diluted with water) and the resulting mixture was incubated at 22° C. for 1 h to convert the ATP not consumed in the kinase reaction completely […]. Subsequently 2.5 μL of the “kinase detection reagent” (1.2 fold more concentrated than recommended by the producer) were added, the resulting mixture was incubated at 22° C. for 1 h and then the luminescence measured with a suitable measurement instrument (e.g. Viewlux™ from Perkin-Elmer). The amount of emitted light was taken as a measure for the amount of ADP generated and thereby for the activity of the CSNK1A1.
# [3] = target: wild-type Epidermal Growth Factor Receptor (EGFR) (Homo sapiens (Human), UniProt P00533); assay: WT-EGFR Kinase Assay (TR-FRET, 2 mM ATP)
# From the text: Inhibitory activity of compounds of the present invention against wild-type Epidermal Growth Factor Receptor (EGFR) was quantified employing the TR-FRET based EGFR assay as described in the following paragraphs.
# Recombinant fusion protein of N-terminal Glutathion-S-Transferase (GST) and a fragment of human EGFR (amino acids R669 to A1210), expressed in Sf9 insect cells and purified via affinity chromatography using Glutathion Sepharose as described above, was used as kinase. As substrate for the kinase reaction the biotinylated peptide biotin-Ahx-[…] (C-terminus in amide form) was used which can be purchased e.g. form the company Biosynthan GmbH (Berlin-Buch, Germany).
# For the assay 50 nl of a 100 fold concentrated solution of the test compound in DMSO was pipetted into either a black low volume 384 well microtiter plate or a black 1536 well microtiter plate (both Greiner Bio-One, Frickenhausen, Germany), 2 μL of a solution of EGFR in aqueous assay buffer [50 mM Hepes pH 7.0, 10 mM MgCl2, 1 mM dithiothreitol, 0.5 mM EGTA, 0.3 mM activated sodium ortho-vanadate, 0.005% (w/v) bovine serum albumin, 0.005% (v/v) Tween-20] were added and the mixture was incubated for 15 min at 22° C. to allow pre-binding of the test compounds to the enzyme before the start of the kinase reaction. […] The concentration of EGFR was adjusted depending of the activity of the enzyme lot and was chosen appropriate to have the assay in the linear range, typical concentration was 7.6 pg/μL. The reaction was stopped by the addition of 3 μL of a solution of HTRF detection reagents (83.3 nM streptavidine-XL665 [Cisbio Bioassays, Codolet, France] and 1.67 nM PT66-Tb-Cryptate, a terbium-cryptate labelled anti-phospho-tyrosine antibody from Cisbio Bioassays [instead of the PT66-Tb-cryptate PT66-Eu-Chelate from Perkin Elmer can also be used]) in an aqueous EDTA-solution (133.3 mM EDTA, 0.2% (w/v) bovine serum albumin in 50 mM HEPES pH 7.5).
# The resulting mixture was incubated 1 h at 22° C. to allow the binding of the biotinylated phosphorylated peptide to the streptavidine-XL665 and the PT66-Tb-Cryptate. Subsequently the amount of phosphorylated substrate was evaluated by measurement of the resonance energy transfer from the PT66-Tb-Cryptate to the streptavidine-XL665. Therefore, the fluorescence emissions at 620 nm and 665 nm after excitation at 337 nm were measured in a HTRF reader, e.g. a Pherastar (BMG Labtechnologies, Offenburg, Germany) or a Viewlux (Perkin-Elmer). The ratio of the emissions at 665 nm and at 622 nm was taken as the measure for the amount of phosphorylated substrate.
# CSNK1D = CSNK1D (Homo sapiens (Human), UniProt P48730); assay: CSNK1D Assay (ADP-Glo, 1 μM ATP); details: median, read-out: CSNK1D IC50 [mol/l] (median)
# Protocol: CSNK1D-inhibitory activity of compounds of the present invention in presence of 1 μM adenosine-tri-phosphate (ATP) was quantified employing the CSNK1 D assay as described in the following paragraphs. In essence, the enzyme activity is measured by quantification of the adenosine-di-phosphate (ADP), which is generated as a co-product of the enzyme reaction, via the “ADP-Glo™ Kinase Assay” kit from the company Promega. This detection system works as follows: In a first step the ATP not consumed in the kinase reaction is quantitatively converted to cAMP employing an adenylate cyclase (“ADP-Glo-reagent”), then the adenylate cyclase is stopped and the ADP generated in the kinase reaction converted to ATP which generates in a luciferase-based reaction a glow-luminescence signal (“Kinase Detection Reagent”).
# as §1, with “CSNK1D,” for “CSNK1A1,”, “PV3665)” for “PV4174)”, “Btn-Ahx-[…]” for “biotin-Ahx-KRRRAL-pS-VASLPGL”
# For the assay 50 nl of a 100 fold concentrated solution of the test compound in DMSO was pipetted into a white 1536-well microtiter plate (Greiner Bio-One, Frickenhausen, Germany), 2 μL of a solution of CSNK1D in aqueous assay buffer [50 mM HEPES pH 7.5, 10% (v/v) glycerol, 10 mM MgCl2, 50 mM NaCl, 1 mM dithiothreitol, 0.01% (w/v) bovine serum albumin, 0.01% (v/v) Triton X-100] were added and the mixture was incubated for 15 min at 22° C. to allow pre-binding of the test compounds to the enzyme before the start of the kinase reaction. […] The concentration of CSNK1D was adjusted depending of the activity of the enzyme lot and was chosen appropriate to have the assay in the linear range, a typical concentration is about 0.5 ng/μL. The reaction was stopped by the addition of 2.5 μL of “ADP-Glo-reagent” (1:1.5 fold diluted with water) and the resulting mixture was incubated at 22° C. for 1 h to convert the ATP not consumed in the kinase reaction completely […]. Subsequently 2.5 μL of the “kinase detection reagent” (1.2 fold more concentrated than recommended by the producer) were added, the resulting mixture was incubated at 22° C. for 1 h and then the luminescence measured with a suitable measurement instrument (e.g. Viewlux™ from Perkin-Elmer). The amount of emitted light was taken as a measure for the amount of ADP generated and thereby for the activity of the CSNK1D.
# [4] = read-out: EGFR Wildtype 2 mM ATP IC50 [mol/l] (median)
# wild-type Epidermal Growth Factor Receptor (EGFR), sequence (P00533 669-1210): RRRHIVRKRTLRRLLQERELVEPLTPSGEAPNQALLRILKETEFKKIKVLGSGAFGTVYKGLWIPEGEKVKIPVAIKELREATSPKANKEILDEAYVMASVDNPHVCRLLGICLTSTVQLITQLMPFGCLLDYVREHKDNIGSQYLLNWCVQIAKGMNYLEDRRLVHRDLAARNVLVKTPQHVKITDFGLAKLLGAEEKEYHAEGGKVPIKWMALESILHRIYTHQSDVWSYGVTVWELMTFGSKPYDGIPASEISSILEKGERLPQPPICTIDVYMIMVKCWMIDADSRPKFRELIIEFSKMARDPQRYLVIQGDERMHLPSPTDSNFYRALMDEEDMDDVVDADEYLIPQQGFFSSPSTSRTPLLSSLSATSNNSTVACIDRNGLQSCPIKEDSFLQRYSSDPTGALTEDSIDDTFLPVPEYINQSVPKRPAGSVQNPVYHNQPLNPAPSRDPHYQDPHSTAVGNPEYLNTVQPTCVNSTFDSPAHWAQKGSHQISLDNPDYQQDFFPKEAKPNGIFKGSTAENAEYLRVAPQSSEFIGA
# CSNK1D, sequence (P48730 whole entry): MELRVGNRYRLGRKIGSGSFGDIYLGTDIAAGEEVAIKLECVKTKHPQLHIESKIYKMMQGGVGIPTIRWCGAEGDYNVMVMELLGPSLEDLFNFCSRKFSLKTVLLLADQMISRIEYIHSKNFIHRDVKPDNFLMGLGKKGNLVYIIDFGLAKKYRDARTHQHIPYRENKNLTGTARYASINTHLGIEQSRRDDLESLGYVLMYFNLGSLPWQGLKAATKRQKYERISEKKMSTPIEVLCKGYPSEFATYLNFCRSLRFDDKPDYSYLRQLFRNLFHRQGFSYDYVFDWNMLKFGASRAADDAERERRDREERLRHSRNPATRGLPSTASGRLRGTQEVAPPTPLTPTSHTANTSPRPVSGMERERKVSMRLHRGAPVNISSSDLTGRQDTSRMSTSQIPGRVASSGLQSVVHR
# T1 sequence (P48729 whole entry): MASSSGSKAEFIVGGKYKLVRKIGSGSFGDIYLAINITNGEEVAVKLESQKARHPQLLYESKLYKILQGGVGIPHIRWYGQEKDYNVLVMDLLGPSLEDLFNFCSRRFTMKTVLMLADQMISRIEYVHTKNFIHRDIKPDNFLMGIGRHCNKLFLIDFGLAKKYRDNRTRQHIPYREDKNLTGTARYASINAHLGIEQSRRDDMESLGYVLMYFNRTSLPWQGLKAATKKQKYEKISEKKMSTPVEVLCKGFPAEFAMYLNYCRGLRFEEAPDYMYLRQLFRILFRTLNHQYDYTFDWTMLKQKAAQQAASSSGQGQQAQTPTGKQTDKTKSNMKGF
SMILES,IC50 (CSNK1A1 [1]) [µM],IC50 (CSNK1A1 [2]) [µM],IC50 ([3]; median) [µM],"IC50 [3, 4] [µM]",IC50 (CSNK1D) [µM]
"CC(C(=O)Nc1cc(-c2[nH]c3cccnc3c2-c2ccccc2)ccn1)c1ccc(F)cc1 (single isomer, unassigned; (-)) [Example 12, (−)-2-(4-fluorophenyl)-N-[4-(3-phenyl-1H-pyrrolo[3,2-b]pyridin-2-yl)pyridin-2-yl]propanamide]",0.037,2.51,> 20,,
"O=C(Cc1ccc(F)cc1)Nc1cc(-c2[nH]c3nccnc3c2-c2ccccn2)ccn1 [Example 19, 2-(4-fluorophenyl)-N-{4-[7-(pyridin-2-yl)-5H-pyrrolo[2,3-b]pyrazin-6-yl]pyridin-2-yl}acetamide]",0.00102,0.0331,,> 20,
"O=C(Cc1ccc(F)cc1)Nc1cc(-c2[nH]c3ccnnc3c2-c2ccccc2)ccn1 [Example 20, 2-(4-fluorophenyl)-N-[4-(7-phenyl-5H-pyrrolo[3,2-c]pyridazin-6-yl)pyridin-2-yl]acetamide]",0.0013,0.0779,,> 20,
"CC(C(=O)Nc1cc(-c2[nH]c3cccnc3c2-c2ccccc2)ccn1)c1ccc(F)cc1 (single isomer, unassigned; (+)) [Example 13, (+)-2-(4-fluorophenyl)-N-[4-(3-phenyl-1H-pyrrolo[3,2-b]pyridin-2-yl)pyridin-2-yl]propanamide]",0.00166,0.0916,,> 20,
"CC(C(=O)Nc1cc(-c2[nH]c3ccc(F)nc3c2-c2ccc(F)cn2)ccn1)c1ccc(F)cc1 (single isomer, unassigned; (+)) [Example 48, (+)-N-{4-[5-fluoro-3-(5-fluoropyridin-2-yl)-1H-pyrrolo[3,2-b]pyridin-2-yl]pyridin-2-yl}-2-(4-fluorophenyl)propanamide]",0.00169,0.0361,,,0.00396
"CC(C(=O)Nc1cc(-c2[nH]c3ccc(F)nc3c2-c2ccc(F)cn2)ccn1)c1ccc(F)cc1 (single isomer, unassigned; (-)) [Example 49, (−)-N-{4-[5-fluoro-3-(5-fluoropyridin-2-yl)-1H-pyrrolo[3,2-b]pyridin-2-yl]pyridin-2-yl}-2-(4-fluorophenyl)propanamide]",0.0345,2.58,,,0.0331
"O=C(Cc1ccc(F)cc1)Nc1cc(-c2[nH]c3nccnc3c2-c2ccccc2)ccn1 [Example 18, 2-(4-fluorophenyl)-N-[4-(7-phenyl-5H-pyrrolo[2,3-b]pyrazin-6-yl)pyridin-2-yl]acetamide]",0.00333,0.26,,> 20,
"O=C(Cc1ccc(F)cc1)Nc1cc(-c2[nH]c3ccc(F)nc3c2-c2ccc(F)cn2)ccn1 [Example 50, N-{4-[5-fluoro-3-(5-fluoropyridin-2-yl)-1H-pyrrolo[3,2-b]pyridin-2-yl]pyridin-2-yl}-2-(4-fluorophenyl)acetamide]",0.00142,0.0416,,,0.00315

# — patent US20230339939A1 (Bayer Aktiengesellschaft, priority 2020, published 2023)
